Reference: the NIST ThermoML archive (doi:10.1016/j.fluid.2016.09.021)

Details: Liquid, Vibrating tube method

c1ccccc1 [benzene]
mass density [kg/m3]
Details | 293 K | 313 K | 333 K | 353 K | 373 K | 393 K | 413 K | 433 K | 448 K | 468 K
2100 kPa | 877.4 | 857 | 835.1 | 813.1 | 790.7 | 767.6 | 743 | 716.7 | 696 | 666.9
3100 kPa | 878.1 | 857.8 | 836 | 814.2 | 792.1 | 769.4 | 745.1 | 719.4 | 699.2 | 670.7
4100 kPa | 878.8 | 858.7 | 837 | 815.4 | 793.4 | 770.9 | 747 | 721.8 | 702.1 | 674.3
5000 kPa | 879.6 | 859.6 | 838 | 816.5 | 794.7 | 772.5 | 748.8 | 724 | 704.8 | 677.8
10100 kPa | 883.4 | 863.9 | 842.7 | 822.3 | 801.4 | 780 | 758 | 735.4 | 717.8 | 693.2
20000 kPa | 890.4 | 871.5 | 851.8 | 832.3 | 812.9 | 793 | 773.2 | 753 | 738 | 717
30000 kPa | 896.9 | 878.7 | 859.4 | 841.2 | 823.1 | 804.5 | 786.2 | 767.8 | 754.2 | 735.1
40000 kPa | 902.9 | 885.2 | 867 | 849.5 | 832.3 | 814.6 | 797.5 | 780.3 | 767.8 | 750.3
50000 kPa | 908.6 | 891.6 | 874.2 | 857 | 840.7 | 824 | 807.8 | 791.6 | 779.8 | 763.6
60000 kPa | 914 | 897.5 | 880.8 | 864.3 | 848.2 | 832.6 | 817.2 | 801.7 | 790.6 | 775.5
70000 kPa | 919.6 | 902.9 | 886.7 | 871.2 | 855.7 | 841 | 825.8 | 811 | 800.3 | 786.1
